# Where two headings read alike, the source gives them in different places.
# Key:
# F508del/F508del CFTR = target: T1, F508del/F508del CFTR (Homo sapiens, UniProt P13569, DEL508-508); test: Trans-Epithelial Current Clamp (TECC) assay using primary human bronchial epithelial cells; assay type: cell-based; details: for Emax (% Dual): maximum percent activity relative to positive control (co-corrector 0.15 μM + potentiator 0.45 μM = 100%), primary hBE cells F508del/F508del; for EC50: primary hBE cells homozygous F508del/F508del, test C2 corrector with co-corrector and potentiator, 18-24 hours at 37° C., equivalent CFTR current (IEQ)/AUC
# T1 construct: cells isolated from CF patients with the homozygous mutation; endogenous in cells; host or cells: primary human bronchial epithelial (hBE) cells from CF patients homozygous for F508del
# T1 sequence (P13569 with tags, fused parts or gaps DEL508-508): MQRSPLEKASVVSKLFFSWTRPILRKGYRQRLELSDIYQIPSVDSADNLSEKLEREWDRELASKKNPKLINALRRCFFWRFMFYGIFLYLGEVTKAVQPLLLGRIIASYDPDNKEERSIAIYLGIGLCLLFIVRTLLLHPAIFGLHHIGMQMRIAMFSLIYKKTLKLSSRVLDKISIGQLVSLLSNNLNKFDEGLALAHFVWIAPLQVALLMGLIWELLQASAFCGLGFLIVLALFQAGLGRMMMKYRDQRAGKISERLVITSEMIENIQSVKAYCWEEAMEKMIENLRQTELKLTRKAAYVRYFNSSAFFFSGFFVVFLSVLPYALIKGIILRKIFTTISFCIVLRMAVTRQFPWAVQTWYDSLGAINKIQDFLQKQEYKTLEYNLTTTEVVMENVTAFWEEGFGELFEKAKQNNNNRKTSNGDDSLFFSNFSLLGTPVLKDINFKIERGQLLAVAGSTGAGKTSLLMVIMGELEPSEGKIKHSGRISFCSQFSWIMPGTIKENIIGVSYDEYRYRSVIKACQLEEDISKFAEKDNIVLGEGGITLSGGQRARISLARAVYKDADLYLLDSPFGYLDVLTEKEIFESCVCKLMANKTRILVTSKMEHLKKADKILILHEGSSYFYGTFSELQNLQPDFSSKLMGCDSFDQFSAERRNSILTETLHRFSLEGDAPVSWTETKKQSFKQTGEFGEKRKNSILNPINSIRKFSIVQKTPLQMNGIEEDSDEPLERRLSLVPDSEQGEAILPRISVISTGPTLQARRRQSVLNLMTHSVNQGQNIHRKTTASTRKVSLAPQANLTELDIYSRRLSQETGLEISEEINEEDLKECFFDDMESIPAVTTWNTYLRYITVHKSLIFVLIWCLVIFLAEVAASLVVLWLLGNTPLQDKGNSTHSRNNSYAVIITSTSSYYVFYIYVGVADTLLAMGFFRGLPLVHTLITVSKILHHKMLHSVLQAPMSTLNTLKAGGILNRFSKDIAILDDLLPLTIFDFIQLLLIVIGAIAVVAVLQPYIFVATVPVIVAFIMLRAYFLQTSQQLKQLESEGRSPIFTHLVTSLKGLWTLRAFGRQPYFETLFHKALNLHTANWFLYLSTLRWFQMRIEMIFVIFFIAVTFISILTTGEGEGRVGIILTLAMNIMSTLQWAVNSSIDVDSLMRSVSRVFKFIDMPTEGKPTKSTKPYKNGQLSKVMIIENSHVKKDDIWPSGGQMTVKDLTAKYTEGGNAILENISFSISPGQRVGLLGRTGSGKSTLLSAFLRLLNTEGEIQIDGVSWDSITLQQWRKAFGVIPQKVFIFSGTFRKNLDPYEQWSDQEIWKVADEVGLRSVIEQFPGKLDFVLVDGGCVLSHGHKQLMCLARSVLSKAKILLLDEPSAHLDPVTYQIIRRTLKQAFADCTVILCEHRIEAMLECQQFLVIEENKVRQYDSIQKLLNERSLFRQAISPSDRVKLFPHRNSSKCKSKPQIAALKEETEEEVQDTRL
# From the text: A cell-based assay was developed using the primary human bronchial epithelial cells (hBE cells) with F508del/F508del CFTR and other mutations.
# Primary human bronchial epithelial (hBE) cells from CFTR patients with homozygous F508del/F508del mutation were expanded from 1×10^6 to 250×10^6 cells (Neuberger, T et al., 2011, Methods Mol Biol 741:39-54). For this purpose, cells isolated from CF patients with the homozygous mutation, procured from the CF center tissue procurement and cell culture core at the Marsico Lung Institute at UNC (Randell), the Cystic Fibrosis translational research center at McGill University (University), and Rosalind Franklin University Medical School (RFUMS) were seeded onto 24 well Corning (Cat #3378) filter plates that were coated with 3T3 conditioned media and grown at an air-liquid interface for 35 days using an Ultroser® G supplemented differentiation media. All the primary human bronchial epithelial cells were collected in accordance with institutional review board approval protocols. Apical surface mucus was removed 72 hours before the experiment by incubating the apical surface of the cells for 30 minutes with 3 mM dithiothreitol (DTT) prepared in Dulbecco's phosphate buffered saline (DPBS) with Ca^2+ and Mg^2+. This was followed with aspiration of the mucus from the apical surface along with DPBS. The apical surface was re-washed with phosphate buffered saline (PBS) incubated for 30 minutes followed with aspiration. These hBE cells were then incubated with the desired concentrations of the test C2 corrector compounds along with co-corrector, 4-[(2R,4R)-4-({[1-(2,2-difluoro-1,3-benzodioxol-5-yl)cyclopropyl]carbonyl}amino)-7-(difluoromethoxy)-3,4-dihydro-2H-chromen-2-yl]benzoic acid and potentiator, (5-{3-amino-5-[4-(trifluoromethoxy)benzene-1-sulfonyl]pyridin-2-yl}-1,3,4-oxadiazol-2-yl)methanol, for 18-24 hours at 37° C., 5% CO2. The desired concentrations of the correctors and potentiator compounds were prepared from the 10 mM stocks in differentiation media and were always applied on the basolateral side of the epithelial cells. We also used an assay format where a fixed concentration of potentiator was added chronically along with the corrector compounds. This chronic treatment with the potentiator helped eliminate any interaction that might happen with CFTR modulators (correctors and potentiators) and thereby determined the true efficacy of the modulator combinations reflective of clinical relevance.
# The assay uses a Transepithelial Current Clamp (TECC) (Vu, C B et al., 2017; J Med Chem 60:458-473) instrument that can measure the functionality of the mutated channel by measuring the equivalent CFTR current (IEQ) generated by the polarized primary epithelial cells. We used a TECC-24 with a 24-channel electrode manifold allowing for the simultaneous measurement of the transepithelial voltage, VT, and transepithelial resistance, RT, under current clamp conditions, from 24 filters using a 24 well Costar filter plate. The design of the filters in the 24 well filter plates was exactly the same as the design of an individual Transwell filter used in the classical Ussing Chamber with a surface area of 0.33 cm^2. Each measured VT values were corrected for the electrode offset potential measured using buffer alone in a separate plate, and each measured RT values were then corrected for the combined solution series and empty filter resistances. The corrected VT and RT values were then used to calculate the equivalent current, IEQ using Ohm's law (IEQ=VT/RT). The area under the curve (AUC) for the time period between the forskolin peak IEQ response and at the time of bumetanide addition was also calculated using a one-third trapezoid method, in addition to calculating the IEQ. The assay was run in a 24-well format and all 24-wells were measured at the same time point giving a higher throughput for this assay. […]
# F508delCFTR = target: T2, F508delCFTR (Homo sapiens, UniProt P13569, DEL508-508); test: Cell Surface Expression-Horse Radish Peroxidase (CSE-HRP) assay in CFBE41o-F508delCFTR-HRP cells; assay type: cell-based; details: for EC50: CFBE41o-F508delCFTR-HRP cells, 18-24 hours at 33° C., luminescence; for Maximum % activity (without co-corrector) / Maximum % activity (with co-corrector): normalized to on-plate positive control corrector (2 μM)
# T2 construct: expressed in transfected cells; host or cells: CFBE41o- human lung-derived epithelial cell line, doxycycline-inducible expression
# T2 sequence (P13569 with tags, fused parts or gaps DEL508-508): as above
# Protocol: A cellular assay for measuring the F508delCFTR cell surface expression after correction with test compounds either without or with a co-corrector (2 μM of 3-[(2R,4R)-4-({[1-(2,2-difluoro-1,3-benzodioxol-5-yl)cyclopropyl]carbonyl}amino)-7-methoxy-3,4-dihydro-2H-chromen-2-yl]benzoic acid), was developed in human lung derived epithelial cell line (CFBE4lo-) (Veit G et al, (2012) Mol Biol Cell. 23(21): 4188-4202). The development was achieved by expressing the F508delCFTR mutation along with a horseradish peroxidase (HRP) in the fourth exofacial loop, and then measuring the HRP activity using luminescence readout from these cells, CFBE4lo-F508delCFTR-HRP, that were incubated overnight with the test corrector compounds, either without or with the co-corrector. For this primary assay, the CFBE4lo-F508delCFTR-HRP cells were plated in 384-well plates (Greiner Bio-one; Cat 781080) at 4,000 cells/well along with 0.5 μg/mL doxycycline to induce the F508delCFTR-RP expression and further incubated at 37° C., 5% CO2 for 68-72 hours. The test compounds were then added either without or with a co-corrector at the required concentrations and further incubated for 18-24 hours at 33° C. The highest concentration tested was 20 μM or 30 μM (GI-1 to GIII-36) with an 8-point concentration response curve using a 3-fold dilution in both the test compound without or with the co-corrector. Three replicate plates were run to determine one EC50. All plates contained negative controls (dimethyl sulfoxide, DMSO) and positive control (2 μM or 3 μM (GI-1 to GIII-36) of 3-[(2R,4R)-4-({[1-(2,2-difluoro-1,3-benzodioxol-5-yl)cyclopropyl]carbonyl}amino)-7-methoxy-3,4-dihydro-2H-chromen-2-yl]benzoic acid) as well as on-plate concentration response of the positive control. Post incubation, the plates were washed 5× times with Dulbecco's phosphate buffered saline (DPBS), followed by the addition of the HRP substrate, luminol (50 μL), and measuring the HRP activity using luminescence readout on EnVision® Multilabel Plate Reader (Perkin Elmer; product number 2104-0010). The raw counts from the experiment were analyzed using Accelrys® Assay Explorer v3.3.
# Z′ greater than 0.5 was used as passing quality control criteria for the plates. The Z′ is defined as:
# 1−[3*SDPositive Control+3*SDNegative Control/Absolute (MeanPositive Control−MeanNegative Control)]
# The % activity measured at each of the 8 test concentrations of the test compound added either without or with a co-corrector (2 μM or 3 μM (GI-1 to GIII-36) of 3-[(2R,4R)-4-({[1-(2,2-difluoro-1,3-benzodioxol-5-yl)cyclopropyl]carbonyl}amino)-7-methoxy-3,4-dihydro-2H-chromen-2-yl]benzoic acid) was normalized to the on-plate positive control using the following formulae:
# % activity (Test compound without co-corrector)=[(test compound without co-corrector response−DMSO response)/(positive control response−DMSO response)]*100
# % activity (Test compound with co-corrector)=[(test compound with co-corrector response−DMSO response)/(positive control response−DMSO response)]*100
# The maximum % activity achieved for the test compound either without or with a co-corrector at any tested concentration is presented in Table 3 along with the respective EC50's calculated using the following general sigmoidal curve with variable Hill slope equation (described as Model 42 in the Accelrys® Assay Explorer v3.3 software):
# General sigmoidal curve with concentration, response, top, bottom, EC50 and Hill slope. This model describes a sigmoidal curve with an adjustable baseline, a. The equation can be used to fit curves where response is either increasing or decreasing with respect to the independent variable, “x”.
# [1] = with co-corrector (2 μM), read-out: EC50 (with co-corrector)
# [2] = without co-corrector, read-out: EC50 (without co-corrector)
Structure (SMILES),Emax (% Dual) (F508del/F508del CFTR),EC50 (F508del/F508del CFTR),EC50 (F508delCFTR; [1]),EC50 (F508delCFTR; [2]),Maximum % activity (without co-corrector) (F508delCFTR; without co-corrector),Maximum % activity (with co-corrector) (F508delCFTR; with co-corrector (2 μM))
"COc1ccc(C)cc1[C@@]1(C(=O)NS(=O)(=O)c2cccc3nc(C)ccc23)C[C@H]1c1cncc(F)c1 (racemic) [Example 42, rac-(1r,2s)-2-(5-fluoropyridin-3-yl)-1-(2-methoxy-5-methylphenyl)-N-(2-methylquinoline-5-sulfonyl)cyclopropane-1-carboxamide]",127 % Dual,182 nM,1150 nM,1850 nM,690%,
"COc1ccc(C)cc1[C@@]1(C(=O)NS(=O)(=O)c2cccc3nc(C)ccc23)C[C@H]1c1cnc(C(C)C)cn1 (racemic) [Example 61, rac-(1r,2r)-1-(2-methoxy-5-methylphenyl)-N-(2-methylquinoline-5-sulfonyl)-2-[5-(propan-2-yl)pyrazin-2-yl]cyclopropane-1-carboxamide]",281 % Dual,74.5 nM,1110 nM,2440 nM,700%,
"CCOc1cnc([C@@H]2C[C@]2(C(=O)NS(=O)(=O)c2cccc3nc(C)ccc23)c2cc(C)ccc2OC)cn1 (racemic) [Example 62, rac-(1r,2r)-2-(5-ethoxypyrazin-2-yl)-1-(2-methoxy-5-methylphenyl)-N-(2-methylquinoline-5-sulfonyl)cyclopropane-1-carboxamide]",329 % Dual,261 nM,474 nM,990 nM,483%,
"COc1ccc(C)cc1[C@@]1(C(=O)NS(=O)(=O)c2cccc3nc(C)ccc23)C[C@H]1c1ccc(C(C)C)nc1OC (racemic) [Example 78, rac-(1r,2s)-1-(2-methoxy-5-methylphenyl)-2-[2-methoxy-6-(propan-2-yl)pyridin-3-yl]-N-(2-methylquinoline-5-sulfonyl)cyclopropane-1-carboxamide]",282 % Dual,30.3 nM,364 nM,825 nM,825%,
"COc1ccc([C@@H]2C[C@]2(C(=O)NS(=O)(=O)c2cccc3nc(C)ccc23)c2cc(C)ccc2OC)c(OC)n1 (racemic) [Example 79, rac-(1r,2s)-2-(2,6-dimethoxypyridin-3-yl)-1-(2-methoxy-5-methylphenyl)-N-(2-methylquinoline-5-sulfonyl)cyclopropane-1-carboxamide]",205 % Dual,21.6 nM,171 nM,465 nM,388%,860%
"COc1ccc(C)cc1[C@]1(C(=O)NS(=O)(=O)c2cccc3nc(C)ccc23)C[C@@H]1c1cnc(C)cn1 (racemic) [Example 89, rac-(1r,2r)-1-(2-methoxy-5-methylphenyl)-2-(5-methylpyrazin-2-yl)-N-(2-methylquinoline-5-sulfonyl)cyclopropane-1-carboxamide]",322 % Dual,142 nM,1260 nM,2240 nM,447%,935%
"COc1nccc([C@@H]2C[C@]2(C(=O)NS(=O)(=O)c2cccc3nc(C)ccc23)c2cc(C)ccc2OC)n1 (racemic) [Example 95, rac-(1r,2r)-1-(2-methoxy-5-methylphenyl)-2-(2-methoxypyrimidin-4-yl)-N-(2-methylquinoline-5-sulfonyl)cyclopropane-1-carboxamide]",209 % Dual,12.6 nM,855 nM,1810 nM,749%,
"COc1ccc(C)cc1[C@@]1(C(=O)NS(=O)(=O)c2cccc3nc(C)ccc23)C[C@H]1c1ccccc1 (single isomer, unassigned) [Example 2]",250 % Dual,12.9 nM,497 nM,626 nM,523%,
"COc1ccc(C)cc1[C@]1(C(=O)NS(=O)(=O)c2cccc3nc(C)ccc23)C[C@@H]1c1ccccc1 (single isomer, unassigned) [Example 3]",360 % Dual,0.992 nM,994 nM,2450 nM,,
"COc1ccc(C)cc1[C@@]1(C(=O)NS(=O)(=O)c2cccc3nc(C)ccc23)C[C@H]1c1ccc(C)cc1 (single isomer, unassigned) [Example 6]",378 % Dual,5.3 nM,202 nM,187 nM,982%,

# Source: US20240043386A1, “Modulators of the Cystic Fibrosis Transmembrane Conductance Regulator Protein and Methods of Use” (AbbVie Global Enterprises Ltd., priority 2021, published 2024)
